Data set [1] relates to mice. The data set is described as follows: Mouse phenotypic seizure liability assay (modified Racine score). As to conditions: 100 mg/kg i.p., male C57Bl/6 mice, 3 h. The class given is in vivo. As for the experimental part: Brain plasma concentration ratio (Kp) was calculated by dividing brain concentration by plasma concentration for each animal. Unbound brain to unbound plasma concentration ratio (Kp,uu) is calculated using the following formula: Kp,uu = (Brain ng/g x brain fu)/(plasma ng/ml x plasma fu). […]
Behavioral Manifestations of Seizure Activity
To evaluate induction of behavioral manifestation of seizure activity, C57Bl/6 mice received administration of vehicle or 100 mg/kg M1 PAM. Compounds were formulated in 30% Captisol (11) or 10% Tween 80 (2-4 and 12) (pH 7.0) at a concentration of 10 mg/mL and injected i.p. (n = 3). Animals were monitored continuously and scored for behavioral manifestations of seizure activity at 5, 10, 15, and 30 min, and 1 and 3 h. Behavioral manifestations of seizures were scored using a modified Racine scoring system.2 Briefly, a score of 0 represents no behavior alterations; score 1, immobility, mouth and facial movements, or facial clonus; score 2, head nodding, tail extension; score 3, forelimb clonus, repetitive movements; score 4, rearing and tonic clonic seizure; and score 5, continuous rearing and falling, severe generalized tonic clonic seizure.

For data set [2], the target named is T1, human M1 (Homo sapiens, UniProt P11229).
T1 sequence (P11229 1-460): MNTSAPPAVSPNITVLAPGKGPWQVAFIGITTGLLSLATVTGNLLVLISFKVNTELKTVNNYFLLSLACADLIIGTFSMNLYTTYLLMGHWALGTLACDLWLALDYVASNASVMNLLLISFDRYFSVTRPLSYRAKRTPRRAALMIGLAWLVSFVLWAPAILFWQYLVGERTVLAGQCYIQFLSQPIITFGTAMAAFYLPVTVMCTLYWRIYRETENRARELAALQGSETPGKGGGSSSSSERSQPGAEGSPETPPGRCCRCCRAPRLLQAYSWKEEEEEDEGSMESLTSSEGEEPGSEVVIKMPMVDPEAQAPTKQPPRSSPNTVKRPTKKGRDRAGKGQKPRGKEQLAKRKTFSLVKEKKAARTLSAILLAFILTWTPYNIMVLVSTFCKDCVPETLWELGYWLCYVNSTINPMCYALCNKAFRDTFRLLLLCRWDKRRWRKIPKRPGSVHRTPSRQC
The data set is described as follows: Calcium mobilization assay, human M1 (agonist and PAM modes). It is filed as cell-based.

A short description of data set [3]: Rat plasma and brain exposure, 100 mg/kg i.p., 3 h. The class given is in vivo. Particulars: brain and plasma, ip, 100 mg/kg i.p. The source says: Due to the prevalence of metabolite A (VU6036463, 24) in both in vitro preparations and in vivo, we first synthesized and characterized 24. Utilizing intermediate 19 (Scheme 3), a Suzuki coupling with benzyl chloride 28 afforded a mixture of N-Boc protected analog 29 and N-H analog 29a in moderate isolated yield. Hydrolysis of the nitriles to the carboxylic acid, followed by a HATU-mediated coupling with tetrahydro-2H-pyran-4-amine delivered 24 in 81% yield over the two steps.[21] In our kinetic assays, 24 was an “active” metabolite, with the profile of an M1 ago-PAM. […] To ascertain if 24 could be the source of the adverse cholinergic events in rats, we dosed 11 and 24, in parallel, at a dose of 100 mg/kg i.p. in 30% captisol and prepared plasma and brain samples at a 3-h time point to determine brain exposure of the M1 ago-PAM 24. In this study, 11 achieved a total plasma concentration of 3.6 μM and a total brain concentration of 0.93 μM (Kp = 0.26).

As a reminder, the EC50 is the concentration giving half of the maximal effect. By Kp is commonly meant tissue or fluid exposure divided by exposure in the circulation.

SMILES strings stand for the structures. Where two headings read alike, the source gives them in different places.

Turning to `Cc1ccc(Cc2cc3c(=O)n([C@H]4CCCC[C@@H]4O)cnc3c3ccccc23)cn1` [compound 3, reference compound], in data set [1], the “seizure liability / behavioral convulsions (modified Racine score)” value is recorded as “robust behavioral convulsions”.

For `Cn1ccc(-c2ccc(Cn3cc(C(=O)N[C@H]4CCOC[C@@H]4O)c4ncccc43)cc2)n1` [compound 4, reference compound], the “seizure liability / behavioral convulsions (modified Racine score)” value in data set [1] is “robust behavioral convulsions”.

As for `Cn1ccc(-c2ccc(Cc3cc(C(=O)N[C@H]4CCOC[C@@H]4O)nc4ccn(C)c34)cc2)n1` [compound 30], in data set [2] (PAM mode, % ACh max), the “hM1 PAM AChmax (%)” value is reported as 71%. The EC50 in data set [2] (PAM mode, read-out: hM1 PAM EC50) is 4.9 nM; in data set [2] (agonist mode, read-out: hM1 Agonist EC50), 176 nM. For the same compound, in data set [2] (agonist mode, % ACh max), the “hM1 Agonist AChmax (%)” value was found to be 60%. Besides, the Kp at 3 h in data set [3] was determined as 0.38.

(Values after article PMC11413853, “Discovery of VU6007496: Challenges in the Development of an M1 Positive Allosteric Modulator Backup Candidate” (ACS Chemical Neuroscience, 2024).)
